Reference: US12702650B2, “Methods and compositions for treating smith-magenis syndrome” (The Regents of the University of California, priority 2019, dated 2026)

Columns and labels:
Lgl1^+/− mice [1] = experiment: three-chamber social interaction test after NMDAR blocker injection; type: in vivo, mouse
Procedure: Pharmacological blockers of NMDARs were used, and animals tested in the three-chamber social interaction test.
Social interaction test—The social interaction test was performed as previously described (Yang et al., 2011). The sociability apparatus (Stoetling) has three 20 cm×40 cm chambers and two target enclosures 7 cm in diameter and 15 cm tall. During testing, the apparatus was surrounded by opaque panels to prevent mice from seeing out of the apparatus.
Animals were placed in the center chamber of the 3-chambered sociability apparatus with the doors between chambers closed for 10 minutes to habituate to the testing conditions. The doors were removed, and mice were allowed to explore the full field for 10 minutes. Non-littermate strain- and age-matched target mice from a separate cage were introduced during the social interaction phase of the test. For the social novelty phase, target mice from the social interaction phase were kept in the same location and a novel target mouse was introduced to the opposite chamber. For scoring of interaction time, ROIs containing the target mouse and novel object were selected in MATLAB. ROIs were selected by experimenters blinded to the animal genotypes or virus treatment.
Scoring for distance travelled and thigmotaxis during the open field test, as well as time spent interacting with objects in the Novel Object Recognition test and time spent interacting with target mice and objects in the Social Interaction test was performed using Autotyping 15.04 in MATLAB 2014b (Patel et al., 2014)(MathWorks).

Lgl1^+/− mice [2] = experiment: nestlet shredding (stereotyped repetitive behavior); type: in vivo, mouse; conditions: Lgl1^+/+ and Lgl1^+/− mice; ketamine injection vs saline
Procedure: Nestlet shredding—Mice were removed from their home cage and placed individually into a clean novel cage containing a weighed piece of cotton nesting material of approximately 2.8 g. Mice were left in the cage for 60 minutes. At the end of the testing period, mice were returned to their home cage. Shredded material was separated from the undisturbed portion, which was weighed (Li et al., 2006).

## CC12CC3CC(C)(C1)CC(N)(C3)C2 [memantine]
Lgl1^+/− mice [1]; intraperitoneal injection of 20 mg/kg memantine
  preference for social interaction (social interaction phase): strongly preferred social interaction

## CNC1(c2ccccc2Cl)CCCCC1=O (stereo not shown) [ketamine]
Lgl1^+/− mice [1]; intraperitoneal injection of 30 mg/kg ketamine, compared with control animals
  preference for social interaction (social interaction phase): clear preference for social interaction
Lgl1^+/− mice [2]
  nestlet-shredding activity: did not change

## C[C@]12N[C@H](Cc3ccccc31)c1ccccc12 [MK-801, dizocilpine]
Lgl1^+/− mice [1]; intraperitoneal injection of 0.3 mg/kg MK-801
  preference for social interaction (social interaction phase): strongly preferred social interaction
